As a reminder, the IC50 is the midpoint of a concentration-inhibition curve. The Ki is a measure of affinity in units of concentration, obtained from inhibition or displacement.

Like-named read-outs stand apart in the source and are kept apart here. A value given as a limit tells only on which side of the number the result lay.

The subject of assay [1] is SW480 cells. Put plainly: MTS cell viability assay, SW480. The assay is classed as cell-based. To be noted: Homo sapiens, SW480, 72 h, mean ± SD (n = 3). The procedure:
(§1) MTS Cell Viability Assay. Colorectal cancer cells (SW480 and HCT116), TNBC cells (MDA-MB-231, MDA-MB-468, and BT-20), and lung cancer A549 cells were seeded in 96-well plates at 5×10^3 cells/well, maintained overnight at 37° C., and incubated with the tested compounds at various concentrations. Cell viability was monitored after 72 h using a freshly prepared mixture of 1 part phenazine methosulfate (PMS, Sigma) solution (0.92 mg/mL) and 19 parts 3-(4,5-dimethylthiazol-2-yl)-5-(3-carboxymethoxyphenyl)-2-(4-sulfophenyl)-2H-tetrazolium (MTS, Promega) solution (2 mg/mL). Cells were incubated in 10 μL of this solution at 37° C. for 3 h, and A490 was measured. The effect of each compound is expressed as the concentration required to reduce A490 by 50% (IC50) relative to DMSO-treated cells. Experiments were performed in triplicate.
Background: Formazan colour is commonly taken as a measure of viable cells.

For assay [2], the system named is HCT116 cells. As to the kind of experiment: MTS cell viability assay, HCT116. Format: cell-based. To be noted: Homo sapiens, HCT-116; 72 h; mean ± SD (n = 3); Table 5; read-out: MTS cell viability IC50, Wnt hyperactive cancer cells HCT116. As to the method: as §1
In assay [3] the target is T1, β-catenin/Tcf protein-protein interaction (Homo sapiens, UniProt P35222).
T1 construct: Wild-type β-catenin (residues 138-781) were cloned into a pET-28b vector; 6×histidine (C); made in house; host or cells: E. coli BL21 DE3
T1 sequence (P35222 138-781): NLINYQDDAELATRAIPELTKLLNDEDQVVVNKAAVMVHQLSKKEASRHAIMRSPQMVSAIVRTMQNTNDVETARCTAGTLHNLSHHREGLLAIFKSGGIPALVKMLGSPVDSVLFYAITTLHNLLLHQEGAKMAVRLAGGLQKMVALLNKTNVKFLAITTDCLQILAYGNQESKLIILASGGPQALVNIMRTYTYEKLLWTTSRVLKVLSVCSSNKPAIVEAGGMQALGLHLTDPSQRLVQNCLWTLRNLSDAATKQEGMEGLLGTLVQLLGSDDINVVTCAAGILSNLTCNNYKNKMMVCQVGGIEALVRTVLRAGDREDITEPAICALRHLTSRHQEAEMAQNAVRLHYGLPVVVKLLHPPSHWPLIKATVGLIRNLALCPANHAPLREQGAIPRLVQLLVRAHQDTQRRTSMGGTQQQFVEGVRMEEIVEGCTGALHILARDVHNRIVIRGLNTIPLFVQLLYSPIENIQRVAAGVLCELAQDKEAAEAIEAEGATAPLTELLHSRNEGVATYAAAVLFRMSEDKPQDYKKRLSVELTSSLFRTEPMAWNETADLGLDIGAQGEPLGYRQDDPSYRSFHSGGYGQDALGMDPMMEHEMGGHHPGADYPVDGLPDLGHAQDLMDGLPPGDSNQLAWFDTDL
Put plainly: FP competitive inhibition assay. The assay is classed as binding. The procedure, abridged:
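His-tagged human β-catenin (residues 138-781, E. coli-expressed) at 10 nM with 2.5 nM fluorescein-labeled Tcf4 (7-51) in PBS-type buffer with bovine γ-globulin and 0.01% Triton X-100. Compounds added, 1.5 h at 4 °C, 1% DMSO, before fluorescence polarization read. IC50 by nonlinear fit; Ki derived from IC50.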

The mark [4] stands for this setting: Table 4, read-out: MTS cell viability IC50, Wnt hyperactive SW480 Cells (converted).
Where [5] appears, read: Table 5, read-out: MTS cell viability IC50, Wnt hyperactive cancer cells SW480.
The mark [6] stands for this setting: Assay 1, mean ± SD (n = 3), read-out: Ki ± SD, Assay 1.
Setting [7] is: Assay 2, mean ± SD (n = 3), read-out: Ki ± SD, Assay 2.
Where [8] appears, read: Assay 3, mean ± SD (n = 3), read-out: Ki ± SD, Assay 3.

Take `COC(=O)CCn1c(CCc2nc3ccccc3s2)c(CCc2ccc(Cl)cc2)c2cc(C(=O)OC)ccc21` [Compound 43, Methyl 2-(2-(benzo[d]thiazol-2-yl)ethyl)-3-(4-chlorophenethyl)-1-(3-methoxy-3-oxopropyl)-1H-indole-5-carboxylate]: the IC50 in assay [1] (setting [4]) was over 400 µM.
`O=C(NCc1ccc(Cl)cc1)c1ccc2c(c1)c(CCc1ccc(F)cc1)c(CCc1nc3ccccc3s1)n2CCc1nn[nH]n1` [Compound 45, 1-(2-(2H-tetrazol-5-yl)ethyl)-2-(2-(benzo[d]thiazol-2-yl)ethyl)-N-(4-chlorobenzyl)-3-(4-fluoro-phenethyl)-1H-indole-5-carboxamide]: the figures for the IC50 in assay [1] (setting [5]) and in assay [2] were 14 ± 2.2 µM and 12 ± 1.9 µM, respectively. Further, the inhibition constant Ki in assay [3] (setting [6]) was 0.97 ± 0.39 µM; in assay [3] (setting [7]) it was 0.7 ± 0.02 µM.
In the case of `COc1ccc2sc(CCc3c(CCc4ccc(Cl)cc4)c4cc(C(=O)NCc5ccc(Cl)cc5)ccc4n3CCc3nn[nH]n3)nc2c1` [Compound 48, 1-(2-(2H-tetrazol-5-yl)ethyl)-N-(4-chlorobenzyl)-3-(4-chlorophenethyl)-2-(2-(5-methoxybenzo-[d]thiazol-2-yl)ethyl)-1H-indole-5-carboxamide], the IC50 in assay [1] (setting [4]) was 9.3 ± 4.9 µM. For the same compound, the Ki in assay [3] (setting [6]) was 2.4 ± 0.56 µM; in assay [3] (setting [7]), 3.2 ± 0.24 µM.
As to `COc1ccc2sc(CCc3c(CCc4ccc(Cl)cc4)c4cc(C(=O)NCc5ccccc5N(C)C)ccc4n3CCc3nn[nH]n3)nc2c1` [Compound 54, 1-(2-(2H-tetrazol-5-yl)ethyl)-3-(4-chlorophenethyl)-N-(2-(dimethylamino)benzyl)-2-(2-(5-methoxybenzo[d]thiazol-2-yl)ethyl)-1H-indole-5-carboxamide], the IC50 in assay [1] (setting [5]) stood at 11 ± 1.5 µM; in assay [2], 11 ± 1.7 µM. The Ki in assay [3] (setting [6]) worked out at 1.9 ± 0.14 µM; in assay [3] (setting [7]), 3 ± 0.24 µM.
The corresponding values for `COc1ccc2sc(CCc3c(CCc4ccc(Cl)cc4)c4cc(C(=O)NCc5ccccn5)ccc4n3CCc3nn[nH]n3)nc2c1` [Compound 55, 1-(2-(2H-tetrazol-5-yl)ethyl)-3-(4-chlorophenethyl)-2-(2-(5-methoxybenzo[d]thiazol-2-yl)ethyl)-N-(pyridin-2-ylmethyl)-1H-indole-5-carboxamide] are 13 ± 1.7 µM, 20 ± 2.7 µM, 2.9 ± 0.5 µM and 5.1 ± 0.42 µM.
The corresponding values for `COc1ccc2sc(CCc3c(CCc4ccc(Cl)cc4)c4cc(C(=O)NCc5ccncc5)ccc4n3CCc3nn[nH]n3)nc2c1` [Compound 56, 1-(2-(2H-tetrazol-5-yl)ethyl)-3-(4-chlorophenethyl)-2-(2-(5-methoxybenzo[d]thiazol-2-yl)ethyl)-N-(pyridin-4-ylmethyl)-1H-indole-5-carboxamide] are 14 ± 1.7 µM, 23 ± 2.5 µM, 4.2 ± 0.43 µM and 1.9 ± 0.17 µM.
The corresponding values for `COc1ccc2sc(CCc3c(CCc4ccc(Cl)cc4)c4cc(C(=O)NCc5ccncn5)ccc4n3CCc3nn[nH]n3)nc2c1` [Compound 57, 1-(2-(2H-tetrazol-5-yl)ethyl)-3-(4-chlorophenethyl)-2-(2-(5-methoxybenzo[d]thiazol-2-yl)ethyl)-N-(pyrimidin-4-ylmethyl)-1H-indole-5-carboxamide] are 19 ± 1.6 µM, 24 ± 2.8 µM, 3.6 ± 0.35 µM and 2.8 ± 0.17 µM.
Turning to `COc1ccc2sc(CCc3c(CCc4ccc(Cl)cc4)c4cc(C(=O)NCc5cnccn5)ccc4n3CCc3nn[nH]n3)nc2c1` [Compound 58, 1-(2-(2H-tetrazol-5-yl)ethyl)-3-(4-chlorophenethyl)-2-(2-(5-methoxybenzo[d]thiazol-2-yl)ethyl)-N-(pyrazin-2-ylmethyl)-1H-indole-5-carboxamide], the figures for the IC50 in assay [1] (setting [5]) and in assay [2] were 19 ± 1.8 µM and 12 ± 1.8 µM, respectively. In addition, the Ki in assay [3] (setting [6]) is 2 ± 0.29 µM; in assay [3] (setting [7]), 7.6 ± 0.94 µM.
Turning to `COc1ccc2sc(CCc3c(CCc4ccc(Cl)cc4)c4cc(C(=O)NCc5csc(C)n5)ccc4n3CCc3nn[nH]n3)nc2c1` [Compound 60, 1-(2-(2H-tetrazol-5-yl)ethyl)-3-(4-chlorophenethyl)-2-(2-(5-methoxybenzo[d]thiazol-2-yl)ethyl)-N-((2-methylthiazol-4-yl)methyl)-1H-indole-5-carboxamide], the IC50 was determined as 14 ± 1.9 µM in assay [1] (setting [5]) and 18 ± 2.8 µM in assay [2]. Besides, the Ki in assay [3] (setting [6]) was 0.93 ± 0.092 µM; in assay [3] (setting [7]) it was 4.7 ± 0.28 µM.
In the same order, the values of `COc1ccc2sc(CCc3c(CCc4ccc(Cl)cc4)c4cc(C(=O)NCc5ccno5)ccc4n3CCc3nn[nH]n3)nc2c1` [Compound 61, 1-(2-(2H-tetrazol-5-yl)ethyl)-3-(4-chlorophenethyl)-N-(isoxazol-5-ylmethyl)-2-(2-(5-methoxybenzo[d]thiazol-2-yl)ethyl)-1H-indole-5-carboxamide] are 35 ± 4.3 µM, 40 ± 5.3 µM, 1 ± 0.094 µM and 2.9 ± 0.24 µM.
The corresponding values for `COc1ccc2sc(CCc3c(CCc4ccc(Cl)cc4)c4cc(C(=O)NCc5ccon5)ccc4n3CCc3nn[nH]n3)nc2c1` [Compound 62, 1-(2-(2H-tetrazol-5-yl)ethyl)-3-(4-chlorophenethyl)-N-(isoxazol-3-ylmethyl)-2-(2-(5-methoxybenzo[d]thiazol-2-yl)ethyl)-1H-indole-5-carboxamide] are 21 ± 2.1 µM, 28 ± 3.8 µM, 3.1 ± 0.18 µM and 7.6 ± 0.55 µM.
Regarding `Cc1ccc(CCc2c(-c3ccsc3)n(CCc3nn[nH]n3)c3ccc(C(=O)O)cc23)cc1` [Compound 78, 1-(2-(2H-tetrazol-5-yl)ethyl)-3-(4-methylphenethyl)-2-(thiophen-3-yl)-1H-indole-5-carboxylic acid], the IC50 in assay [1] (setting [5]) and in assay [2] was over 400 µM each time. The inhibitory constant (Ki) in assay [3] (setting [6]) is 0.4 ± 0.14 µM; in assay [3] (setting [7]), 0.97 ± 0.14 µM; in assay [3] (setting [8]) it was 0.25 ± 0.079 µM; in assay [3] (Assay 4, mean ± SD (n = 3), read-out: Ki ± SD, Assay 4) it was 0.36 ± 0.07 µM; in assay [3] (Assay 5, mean ± SD (n = 3), read-out: Ki ± SD, Assay 5) it was 0.23 µM.
As to `Cc1ccc(CCc2c(-c3ccsc3)n(CCc3nn[nH]n3)c3ccc(C(=O)NO)cc23)cc1` [Compound 90, 1-(2-(2H-tetrazol-5-yl)ethyl)-N-hydroxy-3-(4-methylphenethyl)-2-(thiophen-3-yl)-1H-indole-5-carboxamide], the 50% inhibitory concentration (IC50) in assay [1] (setting [5]) came to 115 ± 22 µM; in assay [2] it was 133 ± 4.1 µM. In addition, the Ki in assay [3] (setting [6]) was 0.34 ± 0.043 µM; in assay [3] (setting [7]), 0.24 ± 0.043 µM.
Turning to `Cc1ccc(CCc2c(-c3ccsc3)n(CCc3nn[nH]n3)c3ccc(C(=O)NCc4ccon4)cc23)cc1` [Compound 93, 1-(2-(2H-tetrazol-5-yl)ethyl)-N-(isoxazol-3-ylmethyl)-3-(4-methylphenethyl)-2-(thiophen-3-yl)-1H-indole-5-carboxamide], the IC50 in assay [1] (setting [5]) turned out to be 36 ± 3.9 µM; in assay [2], 44 ± 5.4 µM. Further, the Ki in assay [3] (setting [6]) came out at 7.2 ± 0.77 µM; in assay [3] (setting [7]) it was 7.4 ± 0.23 µM; in assay [3] (setting [8]), 13 ± 1.3 µM.
Consider `Cc1ccc(CCc2c(-c3cn[nH]c3)n(CCc3nn[nH]n3)c3ccc(C(=O)NCc4ccon4)cc23)cc1` [Compound 97, 1-(2-(2H-tetrazol-5-yl)ethyl)-N-(isoxazol-3-ylmethyl)-3-(4-methylphenethyl)-2-(1H-pyrazol-4-yl)-1H-indole-5-carboxamide], for which, in assay [3] (setting [6]), the Ki is 17 ± 1.6 µM.

(Values after US11530186B2, “Inhibitors for the β-catenin / T-cell factor protein-protein interaction” (H. LEE MOFFITT CANCER CENTER AND RESEARCH INSTITUTE, INC., priority 2018, dated 2022).)
